Experimental data published in ChEMBL document CHEMBL1817546, “The synthesized novel fluorinated compound (LJJ-10) induces death receptor- and mitochondria-dependent apoptotic cell death in the human osteogenic sarcoma U-2 OS cells” (Eur J Med Chem, 2011).

Legend:
Assay type in all cases: functional, cell-based
[1] = system: MCF7; assay: Cytotoxicity against human MCF7 cells after 48 hrs by MTT assay; settings: MCF7, 48 h
[2] = system: U-937; assay: Cytotoxicity against human U937 cells after 48 hrs by MTT assay; settings: U-937, 48 h
[3] = Cytotoxicity against human HT29-AK cells after 48 hrs by MTT assay
[4] = system: MDA-MB-231; assay: Cytotoxicity against human MDA-MB-231 cells after 48 hrs by MTT assay; settings: MDA-MB-231, 48 h
[5] = system: HL-60; assay: Cytotoxicity against human HL60 cells after 48 hrs by MTT assay; settings: HL-60, 48 h
[6] = system: COLO 205; assay: Cytotoxicity against human COLO205 cells after 48 hrs by MTT assay; settings: COLO 205, 48 h
[7] = system: U2OS; assay: Cytotoxicity against human U2OS cells after 48 hrs by MTT assay

SMILES	IC50 [1] [µM]	IC50 [2] [µM]	IC50 [3] [µM]	IC50 [4] [µM]	IC50 [5] [µM]	IC50 [6] [µM]	IC50 [7] [µM]
Fc1cccc(-c2nc(Nc3ccc(Br)cc3)c3cc(F)ccc3n2)c1	> 50	> 50	> 50	> 50	> 50	> 50	> 50
Fc1cccc(Nc2nc(-c3cccc(F)c3)nc3ccc(F)cc23)c1	48.7	42.3	> 50	47.6	43.1	> 50	49.6
Nc1cccc(Nc2nc(-c3cccc(F)c3)nc3ccc(F)cc23)c1	> 50	> 50	> 50	> 50	> 50	> 50	49.6
Fc1cccc(-c2nc(Nc3ccccc3Br)c3cc(F)ccc3n2)c1	> 50	> 50	> 50	> 50	> 50	> 50	> 50
Fc1cccc(-c2nc(Nc3ccccc3)c3cc(F)ccc3n2)c1	49.7	45.5	48.3	47.8	48.3	49.7	47.6
Oc1cccc(Nc2nc(-c3cccc(F)c3)nc3ccc(F)cc23)c1	> 50	> 50	> 50	> 50	> 50	> 50	33.3
Fc1cccc(-c2nc(Nc3cccc(Cl)c3)c3cc(F)ccc3n2)c1	> 50	> 50	> 50	> 50	> 50	> 50	> 50
Cc1ccc(Nc2nc(-c3cccc(F)c3)nc3ccc(F)cc23)cc1	> 50	> 50	> 50	> 50	> 50	> 50	> 50
Fc1cccc(-c2nc(Nc3ccccc3F)c3cc(F)ccc3n2)c1	> 50	> 50	> 50	> 50	> 50	> 50	> 50
Oc1ccccc1Nc1nc(-c2cccc(F)c2)nc2ccc(F)cc12	> 50	46.2	> 50	> 50	44.4	> 50	41.4
COc1ccccc1Nc1nc(-c2cccc(F)c2)nc2ccc(F)cc12	> 50	> 50	> 50	> 50	> 50	> 50	> 50
Oc1ccc(Nc2nc(-c3cccc(F)c3)nc3ccc(F)cc23)cc1	> 50	> 50	> 50	> 50	> 50	> 50	> 50
COc1ccc(Nc2nc(-c3cccc(F)c3)nc3ccc(F)cc23)cc1	48.4	41.1	42.3	47.3	38.6	46.8	32.3
Fc1ccc(Nc2nc(-c3cccc(F)c3)nc3ccc(F)cc23)cc1	> 50	> 50	> 50	> 50	> 50	> 50	> 50
Nc1ccc(Nc2nc(-c3cccc(F)c3)nc3ccc(F)cc23)cc1	> 50	> 50	> 50	> 50	> 50	> 50	44.1
Cc1ccccc1Nc1nc(-c2cccc(F)c2)nc2ccc(F)cc12	> 50	> 50	> 50	> 50	> 50	> 50	> 50
Nc1ccccc1Nc1nc(-c2cccc(F)c2)nc2ccc(F)cc12	> 50	47.2	> 50	> 50	41.3	> 50	37.9
Fc1cccc(-c2nc(Nc3ccccc3)c3ccccc3n2)c1	> 50	> 50	> 50	> 50	> 50	> 50	> 50
c1ccc(Nc2nc(-c3ccccc3)nc3ccccc23)cc1	> 50	> 50	> 50	> 50	> 50	> 50	> 50
Fc1cccc(-c2nc(Nc3ccc(Cl)cc3)c3cc(F)ccc3n2)c1	> 50	32.6	40.3	> 50	45.7	32.6	38.4
Fc1cccc(-c2nc(Nc3ccccc3Cl)c3cc(F)ccc3n2)c1	> 50	> 50	> 50	> 50	> 50	> 50	> 50
Fc1ccc2nc(-c3ccccc3)nc(Nc3ccccc3)c2c1	> 50	> 50	> 50	> 50	> 50	> 50	> 50
Fc1cccc(-c2nc(Nc3cccc(Br)c3)c3cc(F)ccc3n2)c1	> 50	> 50	> 50	> 50	> 50	> 50	> 50
Cc1cccc(Nc2nc(-c3cccc(F)c3)nc3ccc(F)cc23)c1	> 50	> 50	> 50	> 50	> 50	> 50	> 50
